According to patent US20150343060A1, “TREATMENT OF CIRCULATING TUMOR CELLS USING AN EXTRACORPOREAL DEVICE” (priority 2014, published 2015):

Tested on: A431 cells
Experiment: Probe incubation, irradiation at 24 J/cm^2 and NucleoCounter NC-3000 cell vitality assay after about 24 hours
Type: cell-based, human
Settings: for Cell Number / Cell Vitality: 24 J/cm^2, about 24 hours after irradiation, EGF probe 0.5 μM, panitumumab probe 0.1 μM
Procedure: A431 cells were plated and incubated with either probe for 5 minutes, 10 minutes or 20 minutes prior to washing and irradiation at 24 J/cm^2. […] After irradiation, the cells were cultured at 37° C., 5% CO2 for approximately 24 hours. The NucleoCounter® NC-3000™ cell vitality assay (Chemometec, Allerød, Denmark) was performed.

IRDye® 700DX-panitumumab
Cell Number (5 minutes probe incubation): 675,000 cells/mL | Cell Vitality (5 minutes probe incubation): 44.2% | Cell Number (10 minutes probe incubation): 323,000 cells/mL | Cell Vitality (10 minutes probe incubation): 34% | Cell Number (20 minutes probe incubation): 550,000 cells/mL | Cell Vitality (20 minutes probe incubation): 31% | effect of longer incubation time on cell death (20 minutes vs. 5 minutes incubation, 24 J/cm^2): increased the number of cells undergoing cell death | cell death averaged over the time periods (average over 5, 10 and 20 minutes incubation, 24 J/cm^2): about 60%
